Measured values reported in patent publication US20240293365A1, “METHODS FOR TREATING AND AMELIORATING T CELL RELATED DISEASES” (The Regents of the University of California, priority 2021, published 2024).

Biological target: T1, ZAP70 kinase (Homo sapiens, UniProt P43403)
T1 construct: The FRET change is mediated by the kinase domain; saFRET biosensor module (FRET pair and sensing unit); expressed in transfected cells; host or cells: HEK293
T1 sequence (P43403 338-600 limits assumed): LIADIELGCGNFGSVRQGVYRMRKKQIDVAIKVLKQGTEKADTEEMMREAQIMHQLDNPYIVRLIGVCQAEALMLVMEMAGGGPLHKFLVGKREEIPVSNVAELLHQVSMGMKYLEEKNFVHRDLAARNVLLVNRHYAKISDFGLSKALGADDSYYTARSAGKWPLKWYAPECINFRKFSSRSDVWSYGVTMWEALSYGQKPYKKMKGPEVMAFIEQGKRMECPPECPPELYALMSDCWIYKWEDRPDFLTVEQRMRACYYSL
Assay: saFRET-HTDS: ZAP70 saFRET biosensor screening of a 96-member kinase inhibitor library in HEK293 cells
Assay type: cell-based
Conditions: 96-member kinase inhibitor library, 10 μM, FIG. 2D
Protocol: We first screened a 96-member kinase inhibitor library to identify efficient inhibitors of ZAP70 kinase. […] After 40 minutes of incubation with inhibitors, the cells were imaged, and the FRET ratio changes of individual inhibitors compared to the solvent control were calculated to identify promising candidates after this primary endpoint screening (FIG. 2). We further exploited a control biosensor with a kinase-dead domain (saFRETkd) for counter screening to eliminate false-positive hits due to auto-fluorescence or other non-specific effects (1).
C, Schematics of saFRET assay in HEK293 cells.
A, Schematics of the high throughput drug screening platform. First, the cells cultured in 96-well glass-bottom plate were treated either with DMSO or inhibitors from the kinase inhibitor library. After 40 minutes of incubation, the cells were imaged, and the FRET ratio change compared to the control cell was calculated.

top 10 selected inhibitors of the saFRET screening	Structure (SMILES)
top 10	Cc1[nH]c(/C=C2\C(=O)Nc3ccc(S(=O)(=O)Cc4c(Cl)cccc4Cl)cc32)c(C)c1C(=O)N1CCC[C@@H]1CN1CCCC1 [PHA-665752]
top 10	COc1cc2c(Nc3ccc(NC(=O)c4ccccc4)cc3)ncnc2cc1OCCCN1CCOCC1 [ZM 447439]

Further lines, the molecule ahead of its results:

Structure (SMILES)	top 10 selected inhibitors of the saFRET screening
NC(=O)Nc1cc(-c2cccc(F)c2)sc1C(=O)N[C@H]1CCCNC1 [AZD 7762]	top 10
CNC(=O)c1ccccc1Nc1nc(Nc2ccc(N3CCOCC3)cc2OC)ncc1Cl [NVP-TAE226]	top 10
CN[C@@H]1C[C@H]2O[C@@](C)([C@@H]1OC)n1c3ccccc3c3c4c(c5c6ccccc6n2c5c31)C(=O)NC4 [staurosporine]	top 10
NC1CCCN(c2c(/C=C3/SC(=O)NC3=O)cccc2-c2ccccc2)C1 (stereo not drawn) [AZD 1208]	top 10
COc1ccc2cc(-c3nc(-c4ccc([S+](C)[O-])cc4)[nH]c3-c3ccncc3)ccc2c1 (stereo not drawn) [Tie2 kinase inhibitor]	top 10
CCn1c(=O)c(-c2ccc(-c3cncs3)cc2Cl)cc2cnc(Nc3ccc(N4CCN(C)CC4)cc3)nc21 [FRAX 597]	top 10

Same assay, conditions: inhibitor 10 μM, 40 minutes incubation

Structure (SMILES)	inhibition of ZAP70 kinase domain-mediated activation of saFRET biosensor (FRET ratio change vs solvent control)
Cn1cc(-c2nc(N[C@@H]3CCCC[C@@H]3N)c(F)c3c2C(=O)NC3)cn1 [TAK-659]	relatively ineffective
